Tests used:
Assay type in all cases: physicochemical
[1] = Viscosity of propantheline p-toluenesulfonate (PtTos)/water composites; details: * instrument limit
Text: (§1) Viscosity, conductivity and ΔW values for various propantheline p-toluenesulfonate (PtTos)/water composites.

[2] = Conductivity of propantheline p-toluenesulfonate (PtTos)/water composites
Text: as §1

[3] = Walden plot: ΔW / degree of ionicity; details: for degree of ionicity (ionized): estimated from the Walden plot (FIG. 7)
Text: Many examples of liquid organic salts are far from fully ionized. Instead, they form ion pairs and aggregates of ions in the liquid state and are better described as Liquid Ion Pairs than “Ionic Liquids”. The distinction between these states can be made on the basis of the behavior of the transport property data when plotted in a Walden plot. The Walden plot is a graph of log equivalent conductivity (corrected for molar volume) vs. log fluidity and thus may be used to estimate the degree of association cations and anions (as correlated motion of cation and anion clusters). […] Liquid Ion Pairs lie beyond this region, i.e., more than one order of magnitude away from the Ideal line. Such liquid salts are less than 10% ionized. Examples of such liquid salts of therapeutic ions include propanthaline tosylate which is about 1% ionized, as estimated from the Walden plot (FIG. 7).
With addition of 25 weight % water, ΔW value decreased. This is true for all of the propantheline p-toluenesulfonate/water systems studied.

Compound: CC(C)[N+](C)(CCOC(=O)C1c2ccccc2Oc2ccccc21)C(C)C [PtTos pure, Propantheline p-Toluenesulfonate]
- Viscosity (mPa · s) ± 1% [1]: >2000* mPa · s
- Conductivity (S cm^−1) [2]: 5.41 × 10^−7 S cm^−1
- distance below the reference line in the Walden plot ([3]; FIG. 7): 2 log units
- ΔW (distance form the ideal line) ([3]; Walden plot, PtTos/water composites): 2.0
- degree of ionicity (ionized) [3]: approximately 1%
- degree of ionicity (ionized) ([3]; listed as propanthaline tosylate): about 1%
